Data taken from a melting point compilation (Tetko et al.; mined from patent text by program, amines drawn as free bases though some values may be those of a salt).

SMILES	melting point
C#CCN(C)c1nccc(Oc2ccc(NC(=O)c3cc(F)cc(N4CCCCC4)c3)c3ccccc23)n1	116 to 117 °C
COC1=C(OC)CC(C=C(C#N)C(N)=O)C=C1 (stereo not given)	170 to 171 °C
CC(C)(C)NC(=O)CN1C(=O)C(NC(=O)Nc2cccc(Cl)c2)CC(C2CCCCC2)c2ccccc21 (stereo not given)	223 to 226 °C
NCC(=O)Nc1sccc1C(=O)c1ccccc1Cl	156 to 158 °C
CC(C)(C)c1ccc2c(Br)c3ccc(C(C)(C)C)cc3c(Br)c2c1	150 to 152 °C
CCCCS(=O)(=O)Nc1cccc(Oc2cccc3cccnc23)c1	107 to 108 °C
Cc1nnc2n1-c1sc(C#CCN3C(=O)C(=O)c4ccccc43)cc1C(c1ccccc1Cl)=NC2	185 to 190 °C
CCn1c(Cl)nc2ccccc21	48 to 50 °C
C=CCn1ncc2cc3ncc(-c4ccc(OC)c(F)c4)nc3cc21	121 to 124 °C
CN1CCOc2cc([N+](=O)[O-])ccc2C1=O	130 to 132 °C
CCCCCCCCCCCCCCCCn1c(C2=CC(=O)c3ccccc3C2=O)ccc1C1=CC(=O)c2ccccc2C1=O	40 to 43 °C
COc1cc2c(cc1OC)-c1cc(=O)n(C)c(=O)n1CC2	260 to 262 °C
COC(=O)NC(=O)n1cc(C(=O)c2ccn3c2CSC3c2cccnc2)c2ccc(OCc3ccccc3)cc21 (stereo not given)	152 to 153 °C
C#Cc1cc(Nc2ncnc3cnc(NC(=O)CP(=O)(OCC)OCC)cc23)ccc1F	103 to 106 °C
O=CN(O)CCCP1(=O)ON2CCN(O1)OP(=O)(CCCN(O)C=O)O2 (stereo not given)	112 to 118 °C
Fc1ccc(-c2cc(N3CCC(c4ncc[nH]4)CC3)c3sccc3n2)cc1	95 °C
CC(=O)OCC1OC(F)C(OC(C)=O)C(OC(C)=O)C1OC(C)=O (stereo not given)	68 to 69 °C
OCc1c(CO)c(-c2ccncc2)n2c1CCC2	173 to 175 °C
Cn1cc(C2=C(n3ccc4ccccc43)C(=O)NC2=O)c2ccccc21	235 to 236 °C
CCCCC(=O)Nc1ccc(Cl)c(-n2nc(CCCC)c(Cc3ccc(-c4ccccc4S(=O)(=O)NC(=O)c4ccccc4Cl)cc3)c2C(=O)OCC)c1	> 95 °C
CC(=O)c1c[nH]c(C)n1	124 to 127 °C
COC(=O)CNc1ccc(C(C)C)cc1	35 to 36 °C

SMILES	melting point
CC1CCC2(C)C(CCC3C4CCC(=O)C4(C)CCC32)C1 (stereo not given)	107 to 108 °C
COC(=O)Nc1cc(Oc2ccc3c(C(=O)Nc4ccc(CN5CCN(C)CC5)c(C(F)(F)F)c4)nccc3c2)ncn1	203 to 205 °C
Cc1oc(-c2ccco2)nc1COc1ccc(COc2nn(Cc3ccccc3)cc2C=O)cc1-c1ccccc1	122 to 123 °C
COC(=O)c1ccc(CC(C)NCC(O)c2cc(Cl)c(N)c(Cl)c2)cc1 (stereo not given)	97 to 115 °C
O=C(O)Cc1ccc(CC2CCCCC2=NO)cc1 (stereo not given)	180 to 184 °C
COC(=O)COc1c(OC)cc(C=O)cc1OC	99 to 100 °C
CC(C)Oc1ccccc1CN1CCC(=O)C(C(c2ccc(F)cc2)c2ccc(F)cc2)C1 (stereo not given)	155 to 156 °C
CC/C(=C(\c1ccc(I)cc1)c1ccc(OCCCCCS(=O)CCCC(F)(F)C(F)(F)F)cc1)c1ccccc1 (stereo not given)	85 to 87 °C
O=C(OCOC(=O)C1CCc2c(c3ccccc3n2C(=O)c2ccccc2)C1)c1ccccc1 (stereo not given)	84 to 86 °C
COC(=O)c1cc(N=C=S)c(C)cc1OC	86 to 87.5 °C
CC1(C)[C@@H](CN2CCCC2)CC[C@@]1(C)NCC(=O)N1C[C@@H](F)C[C@H]1C#N	108 to 112 °C
O=C(O)C(Cl)(Cl)CCCCCCCCCCCCS(=O)c1ccccc1 (stereo not given)	68 °C
CC(=O)c1ccc(S(=O)(=O)Nc2ccc(C(F)(F)F)cn2)cc1	179 to 180 °C
COc1ccc(Nc2c([N+](=O)[O-])ccc(Cl)c2C(=O)O)cc1	205 to 213 °C
NS(=O)(=O)c1ccc(-c2cc(F)c(F)cc2-c2ccc3c(c2)OCO3)cc1	142 to 143 °C
CC(C)N1CC2CC(C1)CN(S(=O)(=O)c1ccccc1)C2	85.5 to 86.5 °C
CCn1c(=O)oc2cc(N3C[C@H](C(=O)NC)OC3=O)ccc21	263 to 265 °C
Cc1nc2ccccc2n1C1CCNCC1	130 to 132 °C
CS(=O)(=O)c1ccc(-c2cnn(CC(F)(F)F)c(=O)c2-c2ccc(S(C)(=O)=O)cc2)cc1	212 to 213 °C
O=C(Nc1ccc(CN2C(=O)[C@H]3CCC[C@H]3N(C(=O)CN3C(=O)c4ccccc4C3=O)c3ccccc32)cc1)c1ccc(F)cc1 (relative stereo)	244 to 246 °C
Cn1ncnc1COc1ccc2nnc(-c3ccccc3)n2n1	254 °C
COC(=O)C(C)(C)Cc1ccc2oc(-c3nc(C(C)(C)C)cs3)cc2c1	42 to 43 °C

SMILES	melting point
Cc1sc(CCc2ccc(/C=C/CO)cc2)nc1-c1ccccc1	93 to 94 °C
O=C(O)c1ccc(NC(=O)C(F)(F)F)cc1	277 to 278 °C
CS(=O)(=O)N1CCC(c2nc3cc(-c4ccc(-n5cnnn5)cc4F)ccc3o2)CC1	209 to 212 °C
O=C(Nc1ccc(C2CC(F)(F)C2(F)F)cc1)Nc1nonc1-c1ccccc1 (stereo not given)	206 °C
CCCCc1c(C(=O)c2ccc(OC)cc2)n(C)c2ccc([N+](=O)[O-])cc12	102 °C
CNC(=S)N1CCC23C=C[C@H](O)CC2Oc2c(OC)cc(Br)c(c23)C1 (stereo not given in full)	183 to 185 °C
COc1cc2oc(=O)c3c(c2cc1OC)CCN(Cc1ccccc1)C3	189 to 191 °C
CSc1cccc(NCC2CN(C(=O)Oc3ccccc3)CCO2)c1 (stereo not given)	114 to 115 °C
O=[N+]([O-])c1ccccc1COc1cc[nH]n1	87 °C
COC(=O)Nc1ccc(OCc2nc3ccc(OC)cc3s2)cc1C	123 to 125 °C
CCOCc1nc2c(N)nc3cc(OCCCc4cccnc4)ccc3c2n1CC(C)(C)O	160 to 161 °C
CC(C)c1cc([N+](=O)[O-])ccc1OCC1CO1 (stereo not given)	60 to 62 °C
Clc1ccc2c(C3CCN(CC4Cc5ccccc5C4)CC3)c[nH]c2c1Cl	141 to 142 °C
Cc1cc(O)c2cc(C)c(-c3ccc(Cl)cc3Cl)n2n1	234 to 237 °C
CN(C)CCCN1CCC(O)(c2ccccc2)C(C(=O)c2ccccc2)C1 (stereo not given)	114 to 116 °C
CCSCc1cc2cc(CN3CCOCC3)cc3c(=O)c(C(=O)NCc4ccc(Cl)cc4)cn1c23	177 to 178 °C
CSC(=NC(=O)OCc1ccccc1)NNC(=O)NC(=O)OCc1ccccc1	165 to 166 °C
CC(C)OC(=O)C(O)C(CC1CCCCC1)NC(=O)C(Cc1c[nH]cn1)NC(=O)C(CC(=O)N1CCOCC1)Cc1cccc2ccccc12 (mixture of isomers)	103 to 106 °C
O=C(c1ccccc1)c1ccc[nH]1	76 to 77 °C
COc1cccc(CSCCNC(=O)c2c([N+](=O)[O-])cccc2[N+](=O)[O-])c1	69 to 71 °C

Results, then the compound that gave them:

melting point	SMILES
210 °C	CNC(=O)n1sc(-c2ccccc2)nc1=O
101 to 102 °C	C[C@H](Cc1cc2c(c(C(N)=O)c1)N(CCCCOCc1ccccc1)CC2)NCCOc1ccccc1OCC(F)(F)F
149 °C	CC(=O)Nc1ccc(-c2cc(C(=O)c3ccncc3)sc2N2CCOCC2)cc1
66.6 to 76.6 °C	Cc1c2c(nn1C)N(c1ccc(Cl)cc1Cl)CCC2
204 to 205 °C	C[C@H](O)c1nnc(-c2ccc3occ(-c4cc(F)ccc4Cl)c3c2)o1
99 to 102 °C	COC(=O)C1C(c2ccccc2)OC(=O)N1C(c1ccccc1)c1ccccc1 (stereo not given)
119 to 120 °C	CCCCCCCCCCCCn1nnc(C(C(=O)Nc2c(OC)cc(OC)cc2OC)c2ccccc2)n1 (stereo not given)
170 °C	c1ccc(-c2cnc(NC3CCC(CCN4CCN(c5ccccc5)CC4)CC3)nc2)cc1 (stereo not given)
125 to 127 °C	O=C(CN1CCOCC1)Nc1ccn(-c2ccc(Cl)c(Cl)c2)n1
137 to 139 °C	Cc1cccc(Nc2ncnc3ccc(CSc4nccn4C)cc23)c1
109 °C	CCOC(=O)C1=C(C)NN=C(CC)C1c1ccccc1 (stereo not given)
115 to 119 °C	Cc1noc(C)c1C(=O)Nc1ccc(-n2nc(C3CC3)cc2C2CC2)cc1
> 300 °C	O=C(O)Cn1c(=O)c(=O)[nH]c2cc(C(F)(F)F)c(-n3ccc(CNCc4ccccc4)c3)cc21
195 to 197 °C	CN1CCN(C2=Nc3cc(F)ccc3Nc3nn(C)nc32)CC1
250 °C	Cc1ccc(-c2nc(C)c(C)c(=O)[nH]2)cc1
220 to 221 °C	C=CCn1c(=O)c2c(nc(/C=C/c3cc(OC)c(OC(C)=O)c(OC)c3)n2C)n(CC=C)c1=O

melting point	SMILES
165 to 166 °C	COc1cc2c(cc1OC)CC(NC(=O)N(C)O)C2
140 to 141 °C	CC(C)(C)OC(=O)N[C@@H](Cc1ccccc1)[C@H](C#N)OC(=O)c1ccc(-c2ccccn2)cc1
98 to 100 °C	CCCCNC(=O)c1ccc(Cl)c(-n2nc(CCCC)n(Cc3ccc(-c4ccccc4S(=O)(=O)NC(=O)OC(C)(C)C)cc3F)c2=O)c1
89 to 91 °C	Cc1ccc(S(=O)(=O)OCc2cc([N+](=O)[O-])ccc2F)cc1
208 to 210 °C	N#CN=C(Nc1cccnc1)NC(NC(=O)c1ccc(I)cc1)C(Cl)(Cl)Cl (stereo not given)
232 to 236 °C	Cn1c(=O)c2c(nc(C=Cc3cccc(C(F)(F)F)c3)n2C)n(C)c1=O
107 to 109 °C	CN(CCN(O)C(N)=O)Cc1cccc(Oc2ccc(Cl)c(Cl)c2)c1
257 to 262 °C	CCOc1nc(-c2cc(NC(=O)c3ccc(C)c(F)c3)ccc2C)c2c(n1)N(c1c(F)cccc1F)C(=O)NC2
83 to 103 °C	COC(=O)Cc1ccc(OCC(C)NCC(O)c2cccc(Cl)c2)c(Cl)c1 (stereo not given)
72 to 74 °C	O=C1OC(=O)c2cnccc21
152 to 153 °C	CCNC(=O)c1cccc(-c2ccc3ncn(CCc4ccc(OC)c(OC)c4)c3n2)c1
91 to 92 °C	NC(=O)N(O)CCOCc1cccs1
41 to 45 °C	CC(C)[C@H](NC(=O)OCc1ccccc1)C(=O)N(CC(=O)O)Cc1ccccc1
144 to 145 °C	COCCCc1nnc(-c2ccc(-c3ccccc3)nc2)n1-c1cccc(C#N)c1C
170 °C	CCc1ccc(OC)c(-c2csc(NC(=O)c3ccc(C(=O)NCCN4CCCC4)cc3)n2)c1
